Read-outs that look alike come from different tables or passages of the source.
What was measured:
Format in all cases: cell-based
[1] = tested on: MDA-MB-231; test: Tumor cell growth inhibitory activity, MDA-MB-231
[2] = tested on: NCI-H1975; test: Tumor cell growth inhibitory activity, NCI-H1975
[3] = tested on: Human esophageal cancer cells OE33; test: Tumor cell growth inhibitory activity (CCK-8), OE33
Experimental: (§1) Human esophageal cancer cells OE33 (human breast adenocarcinoma cells SK-BR-3, or human gastric cancer cells NCI-N87) was cultured in RPMI1640 (Cellmax) supplemented with 10% fetal bovine serum (Cellmax). Cells in the exponential growth phase were diluted to a concentration of 1×10^5 cells/mL by culture medium and added to 96-well cell culture plates at 100 μL per well, then returned back and incubated overnight in a 37° C. incubator with 5% CO2. On the following day, the compounds were diluted to concentrations of 10000 nM, 2000 nM, 400 nM, 80 nM, 16 nM, 3.2 nM, 0.64 nM, and 0.13 nM by culture medium and the diluted compounds were added to the 96-well cell culture plates at 2 μL per well, with three replicate wells for each concentration. Negative control and blank control groups without addition of compounds were added with 2 μL of the dilution liquid per well. After the addition of the compounds, the plates were returned back to the 37° C. incubator with 5% CO2 to continue the incubation for 72 h. After the incubation, the cell culture plates were removed, and the culture medium was aspirated using a pipette. Then, 100 μL of culture medium containing 10% CCK-8 was added to each well, and the plates were incubated at 37° C. for 3 h. After the incubation, the plates were removed, kept in the dark, and placed in an ELISA plate. Absorbance was measured at 630 nm as the reference wavelength and 450 nm as the test wavelength. The IC50 values (Table 2) were calculated using the four-parameter logistic regression method in GraphPad.

[4] = tested on: human gastric cancer cells NCI-N87; test: Tumor cell growth inhibitory activity (CCK-8), NCI-N87
Experimental: as §1

[5] = tested on: human breast adenocarcinoma cells SK-BR-3; test: Tumor cell growth inhibitory activity (CCK-8), SK-BR-3
Experimental: as §1

[6] = Homo sapiens, MDA-MB-231, read-out: IC50 (nM) for inhibiting the growth of tumor cells, MDA-MB-231, MDA-MB-231 cells
[7] = Homo sapiens, NCI-H1975, read-out: IC50 (nM) for inhibiting the growth of tumor cells, NCI-H1975, NCI-H1975 cells
[8] = read-out: IC50 (nM) for inhibiting the growth of tumor cells, OE33, OE33 cells, 72 h incubation, CCK-8
[9] = read-out: IC50 (nM) for inhibiting the growth of tumor cells, NCI-N87, NCI-N87 cells, 72 h incubation, CCK-8
[10] = read-out: IC50 (nM) for inhibiting the growth of tumor cells, SK-BR-3, SK-BR-3 cells, 72 h incubation, CCK-8
[11] = Homo sapiens, OE33, 72 h, read-out: IC50 (nM) for inhibiting the growth of tumor cells, OE33, OE33 cells, 72 h incubation, CCK-8
[12] = Homo sapiens, NCI-N87, 72 h, read-out: IC50 (nM) for inhibiting the growth of tumor cells, NCI-N87, NCI-N87 cells, 72 h incubation, CCK-8
[13] = Homo sapiens, SK-BR-3, 72 h, read-out: IC50 (nM) for inhibiting the growth of tumor cells, SK-BR-3, SK-BR-3 cells, 72 h incubation, CCK-8
[14] = Homo sapiens, MDA-MB-231 cells, read-out: IC50 (nM) for inhibiting the growth of tumor cells, MDA-MB-231
[15] = Homo sapiens, NCI-H1975 cells, read-out: IC50 (nM) for inhibiting the growth of tumor cells, NCI-H1975
[16] = Homo sapiens, OE33 cells, 72 h incubation, CCK-8, read-out: IC50 (nM) for inhibiting the growth of tumor cells, OE33
[17] = Homo sapiens, NCI-N87 cells, 72 h incubation, CCK-8, read-out: IC50 (nM) for inhibiting the growth of tumor cells, NCI-N87
[18] = Homo sapiens, SK-BR-3 cells, 72 h incubation, CCK-8, read-out: IC50 (nM) for inhibiting the growth of tumor cells, SK-BR-3

Structure (SMILES) | IC50 [1, 6] [nM] | IC50 [2, 7] [nM] | IC50 [3, 11] [nM] | IC50 [4, 12] [nM] | IC50 [5, 13] [nM] | IC50 [1, 14] [nM] | IC50 [2, 15] [nM] | IC50 [3, 16] [nM] | IC50 [4, 17] [nM] | IC50 [5, 18] [nM] | other results
CC[C@@]1(O)C(=O)OCc2c1cc1n(c2=O)Cc2c-1nc1cc3c(cc1c2CCNCCOC)OCO3 [Compound 17, 7-(2-(2-Methoxyethyl)amino)ethyl-10,11-methylenedioxycamptothecin] | 103 | 9.09 | – | – | – | – | – | – | – | – | IC50 [3, 8]: 2.49 nM; IC50 [4, 9]: 0.7 nM; IC50 [5, 10]: 6.53 nM
CC[C@@]1(O)C(=O)OCc2c1cc1n(c2=O)Cc2c-1nc1cc3c(cc1c2CCN[C@@H](C)CCO)OCO3 [Compound 18, 7-(2-((S)-4-Hydroxybutyl-2-yl)amino)ethyl-10,11-methylenedioxycamptothecin] | 446 | – | – | – | – | – | – | – | – | – | IC50 ([2]; read-out: IC50 (nM) for inhibiting the growth of tumor cells, NCI-H1975, NCI-H1975 cells): 222 nM; IC50 [3, 8]: 20.4 nM; IC50 [4, 9]: 3.63 nM; IC50 [5, 10]: 17.1 nM
CC[C@@]1(O)C(=O)OCc2c1cc1n(c2=O)Cc2c-1nc1cc3c(cc1c2CCNCC(F)F)OCO3 [Compound 24, 7-(2-(2-Difluoroethyl)amino)ethyl-10,11-methylenedioxycamptothecin] | 78.2 | 15.6 | 0.56 | 0.24 | 2.96 | – | – | – | – | – | –
CC[C@@]1(O)C(=O)OCc2c1cc1n(c2=O)Cc2c-1nc1cc3c(cc1c2CCNC1CCOCC1)OCO3 [Compound 25, 7-(2-(Tetrahydropyran-4-yl)amino)ethyl-10,11-methylenedioxycamptothecin] | 21.3 | 15.8 | 4.89 | 0.46 | 4.96 | – | – | – | – | – | –
CC[C@@]1(O)C(=O)OCc2c1cc1n(c2=O)Cc2c-1nc1cc3c(cc1c2CCNC1CCC(OC)CC1)OCO3 (stereo partly drawn) [Compound 27, 7-(2-(4-Methoxycyclohexyl)amino)ethyl-10,11-methylenedioxycamptothecin] | 155 | 30.2 | 7.9 | 2.91 | 26.1 | – | – | – | – | – | –
CC[C@@]1(O)C(=O)OCc2c1cc1n(c2=O)Cc2c-1nc1cc3c(cc1c2CCN[C@@H](C)CN=[N+]=[N-])OCO3 [Compound 29, 7-(2-((S)-Azidoisopropyl)amino)ethyl-10,11-methylenedioxycamptothecin] | 32.7 | 5.56 | 1.4 | 0.84 | 2 | – | – | – | – | – | –
CC[C@@]1(O)C(=O)OCc2c1cc1n(c2=O)Cc2c-1nc1cc3c(cc1c2CCN(C(=O)CO)[C@@H](C)COC)OCO3 [Compound 30, 7-(2-(N-Hydroxyacetyl((S)-methoxyisopropyl))amino)ethyl-10,11-methylenedioxycamptothecin] | – | – | – | – | – | 98.5 | 15.4 | 6.47 | 1.56 | 6.23 | –
CC[C@@]1(O)C(=O)OCc2c1cc1n(c2=O)Cc2c-1nc1cc3c(cc1c2CCN[C@@H]1CCOC1)OCO3 [Compound 34, 7-(2-(N-(R)-Tetrahydrofuran-3-ylamino))ethyl-10,11-methylenedioxycamptothecin] | 41.8 | 14.4 | 2.94 | 54.2 | 0.45 | – | – | – | – | – | –
CC[C@@]1(O)C(=O)OCc2c1cc1n(c2=O)Cc2c-1nc1cc3c(cc1c2CCN[C@H]1CCOC1)OCO3 [Compound 35, 7-(2-(N-(S)-Tetrahydrofuran-3-ylamino))ethyl-10,11-methylenedioxycamptothecin] | 73.5 | 18.5 | 2.18 | 54 | 0.87 | – | – | – | – | – | –
C[C@@]1(O)C(=O)OCc2c1cc1n(c2=O)Cc2c-1nc1cc3c(cc1c2CCNC(=O)C(F)F)OCO3 [Compound 36, 7-(2-Difluoroacetylamino)ethyl-10,11-methylenedioxycamptothecin] | – | – | – | – | – | 110 | 38.7 | 7.24 | 7.66 | 2.8 | –
CC[C@@]1(O)C(=O)OCc2c1cc1n(c2=O)Cc2c-1nc1cc3c(cc1c2CCNCCOC)OCCO3 [Compound 42, 7-(2-(2-Methoxyethyl)amino)ethyl-10,11-ethylenedioxycamptothecin] | – | – | – | – | – | 94.8 | 26.6 | 9.95 | 9.96 | 18 | –
CC[C@@]1(O)C(=O)OCc2c1cc1n(c2=O)Cc2c-1nc1cc3c(cc1c2CCNC1CCOCC1)OCCO3 [Compound 43, 7-(2-(Tetrahydropyran-4-yl)amino)ethyl-10,11-ethylenedioxycamptothecin] | – | – | – | – | – | 243 | 58.7 | 39.3 | 7.43 | 81.8 | –
CC[C@@]1(O)C(=O)OCc2c1cc1n(c2=O)Cc2c-1nc1cc3c(cc1c2CCNC1CCC(OC)CC1)OCCO3 (stereo partly drawn) [Compound 44, 7-(2-(4-Methoxycyclohexyl)amino)ethyl-10,11-ethylenedioxycamptothecin] | – | – | – | – | – | 88.5 | 27.1 | 13.8 | 3.54 | 33.6 | –
CC[C@@]1(O)C(=O)OCc2c1cc1n(c2=O)Cc2c-1nc1cc3c(cc1c2CCN[C@@H](C)COC)OCCO3 [Compound 45, 7-(2-((S)-Methoxyisopropyl)amino)ethyl-10,11-ethylenedioxycamptothecin] | – | – | – | – | – | 960 | 106 | 10.3 | 2.46 | 18.5 | –
CC[C@@]1(O)C(=O)OCc2c1cc1n(c2=O)Cc2c-1nc1cc(F)c(C)c3c1c2[C@@H](NC(=O)CO)CC3 [Dxd, reference compound] | – | – | – | – | – | – | – | – | – | – | IC50 ([1]; MDA-MB-231 cells, read-out: IC50 (nM) for inhibiting the growth of tumor cells, MDA-MB-231): 135 nM; IC50 ([2]; NCI-H1975 cells, read-out: IC50 (nM) for inhibiting the growth of tumor cells, NCI-H1975): 286 nM; IC50 ([3]; OE33 cells, 72 h incubation, CCK-8, read-out: IC50 (nM) for inhibiting the growth of tumor cells, OE33): 7.01 nM; IC50 ([4]; NCI-N87 cells, 72 h incubation, CCK-8, read-out: IC50 (nM) for inhibiting the growth of tumor cells, NCI-N87): 2.48 nM; IC50 ([5]; SK-BR-3 cells, 72 h incubation, CCK-8, read-out: IC50 (nM) for inhibiting the growth of tumor cells, SK-BR-3): 9.69 nM
